In ChEMBL document CHEMBL3232998, “Spiromastixones A-O, antibacterial chlorodepsidones from a deep-sea-derived Spiromastix sp. fungus” (J Nat Prod, 2014):
≈ marks a conversion by molar mass, not a printed value.

Assays:
[1] = system: Staphylococcus aureus; assay: Antibacterial activity against Staphylococcus aureus ATCC 29213 after 18 hrs by broth microdilution method; type: functional; conditions: ATCC 29213, 18 h
[2] = system: Bacillus thuringiensis; assay: Antibacterial activity against Bacillus thuringiensis SCSIO BT01 after 18 hrs by broth microdilution method; type: functional; conditions: SCSIO BT01, 18 h
[3] = system: Bacillus subtilis; assay: Antibacterial activity against Bacillus subtilis SCSIO BS01 after 18 hrs by broth microdilution method; type: functional; conditions: SCSIO BS01, 18 h
[4] = system: Escherichia coli; assay: Antibacterial activity against Escherichia coli ATCC 25922 after 18 hrs by broth microdilution method; type: functional; conditions: ATCC 25922, 18 h
[5] = system: Staphylococcus aureus; assay: Antibacterial activity against methicillin-sensitive Staphylococcus aureus ATCC 29213 after 18 hrs by broth microdilution method; type: functional, organism-based; conditions: ATCC 29213, 18 h, read-out: IC50
[6] = system: Staphylococcus aureus; assay: Antibacterial activity against methicillin-resistant Staphylococcus aureus ATCC 33591 after 18 hrs by broth microdilution method; type: functional, organism-based; conditions: ATCC 33591, 18 h, read-out: IC50
[7] = system: Staphylococcus aureus; assay: Antibacterial activity against methicillin-sensitive Staphylococcus aureus 15 after 18 hrs by broth microdilution method; type: functional, organism-based; conditions: Staphylococcus aureus, 15, 18 h; read-out: IC50
[8] = system: Staphylococcus aureus; assay: Antibacterial activity against methicillin-sensitive Staphylococcus aureus 12-28 after 18 hrs by broth microdilution method; type: functional, organism-based; conditions: 12-28, 18 h
[9] = system: Staphylococcus aureus; assay: Antibacterial activity against methicillin-resistant Staphylococcus aureus 12-33 after 18 hrs by broth microdilution method; type: functional, organism-based; conditions: 12-33, 18 h, read-out: IC50
[10] = system: Staphylococcus epidermidis; assay: Antibacterial activity against methicillin-sensitive Staphylococcus epidermidis ATCC 12228 after 18 hrs by broth microdilution method; type: functional, organism-based; conditions: ATCC 12228, 18 h, read-out: IC50
[11] = system: Staphylococcus epidermidis; assay: Antibacterial activity against methicillin-sensitive Staphylococcus epidermidis 12-6 after 18 hrs by broth microdilution method; type: functional, organism-based; conditions: 12-6, 18 h
[12] = system: Staphylococcus epidermidis; assay: Antibacterial activity against methicillin-resistant Staphylococcus epidermidis 12-8 after 18 hrs by broth microdilution method; type: functional, organism-based; conditions: 12-8, 18 h, read-out: IC50
[13] = system: Enterococcus faecalis; assay: Antibacterial activity against vancomycin-sensitive Enterococcus faecalis ATCC 29212 after 18 hrs by broth microdilution method; type: functional, organism-based; conditions: ATCC 29212, 18 h, read-out: IC50
[14] = system: Enterococcus faecalis; assay: Antibacterial activity against vancomycin-resistant Enterococcus faecalis ATCC 51299 after 18 hrs by broth microdilution method; type: functional, organism-based; conditions: ATCC 51299, 18 h, read-out: IC50
[15] = system: Enterococcus faecalis; assay: Antibacterial activity against vancomycin-sensitive Enterococcus faecalis 12-5 after 18 hrs by broth microdilution method; type: functional, organism-based; conditions: 12-5, 18 h, read-out: IC50
[16] = system: Enterococcus faecalis; assay: Antibacterial activity against vancomycin-resistant Enterococcus faecalis 09-9 after 18 hrs by broth microdilution method; type: functional, organism-based; conditions: 09-9, 18 h, read-out: IC50
[17] = system: Enterococcus faecium; assay: Antibacterial activity against vancomycin-resistant Enterococcus faecium ATCC 700221 after 18 hrs by broth microdilution method; type: functional, organism-based; conditions: ATCC 700221, 18 h, read-out: IC50
[18] = system: Enterococcus faecium; assay: Antibacterial activity against vancomycin-resistant Enterococcus faecium 12-1 after 18 hrs by broth microdilution method; type: functional, organism-based; conditions: 12-1, 18 h, read-out: IC50
[19] = system: Enterococcus faecium; assay: Antibacterial activity against vancomycin-sensitive Enterococcus faecium 12-3 after 18 hrs by broth microdilution method; type: functional, organism-based; conditions: 12-3, 18 h, read-out: IC50
[20] = system: Escherichia coli; assay: Antibacterial activity against extended spectrum beta-lactamase-deficient Escherichia coli ATCC 25922 after 18 hrs by broth microdilution method; type: functional, organism-based; conditions: ATCC 25922, 18 h, read-out: IC50
[21] = system: Escherichia coli; assay: Antibacterial activity against extended spectrum beta-lactamase-deficient Escherichia coli 1515 after 18 hrs by broth microdilution method; type: functional, organism-based; conditions: Escherichia coli, 1515, 18 h
[22] = system: Escherichia coli; assay: Antibacterial activity against extended spectrum beta-lactamase-deficient Escherichia coli 12-14 after 18 hrs by broth microdilution method; type: functional, organism-based; conditions: 12-14, 18 h, read-out: IC50
[23] = system: Escherichia coli; assay: Antibacterial activity against extended spectrum beta-lactamase producing Escherichia coli 12-15 after 18 hrs by broth microdilution method; type: functional, organism-based; conditions: 12-15, 18 h, read-out: IC50
[24] = system: Klebsiella pneumoniae; assay: Antibacterial activity against extended spectrum beta-lactamase producing Klebsiella pneumoniae ATCC 700603 after 18 hrs by broth microdilution method; type: functional, organism-based; conditions: ATCC 700603, 18 h
[25] = system: Klebsiella pneumoniae; assay: Antibacterial activity against extended spectrum beta-lactamase-deficient Klebsiella pneumoniae 7 after 18 hrs by broth microdilution method; type: functional, organism-based; conditions: Klebsiella pneumoniae, 7, 18 h; read-out: IC50
[26] = system: Klebsiella pneumoniae; assay: Antibacterial activity against NDM-1 producing Klebsiella pneumoniae ATCC BAA-2146 after 18 hrs by broth microdilution method; type: functional, organism-based; conditions: ATCC BAA-2146, 18 h, read-out: IC50
[27] = system: Klebsiella pneumoniae; assay: Antibacterial activity against extended spectrum beta-lactamase-deficient Klebsiella pneumoniae 12-4 after 18 hrs by broth microdilution method; type: functional, organism-based; conditions: 12-4, 18 h
[28] = system: Klebsiella pneumoniae; assay: Antibacterial activity against extended spectrum beta-lactamase producing Klebsiella pneumoniae 12-8 after 18 hrs by broth microdilution method; type: functional, organism-based; conditions: 12-8, 18 h, read-out: IC50
[29] = system: Staphylococcus aureus; assay: Ratio of levofloxacin IC50 to compound IC50 for methicillin-resistant Staphylococcus aureus 12-33 after 18 hrs by broth microdilution method; type: functional

For CCCc1c(Cl)c(O)c(Cl)c2c1Oc1c(Cl)c(O)c(Cl)c(CCC)c1C(=O)O2, which MIC [1] is on record?
Its MIC is 4 µg/mL (≈ 8.58 µM).

And the MIC [2]?
The MIC was 2 µg/mL (≈ 4.29 µM).

What about the MIC [3] of the same compound?
Its MIC is 2 µg/mL (≈ 4.29 µM).

And the MIC [4]?
Its MIC is over 128 µg/mL.

What about the MIC [5] of the same compound?
The MIC was 16 µM (≈ 7.46 µg/mL).

What about the MIC [6] of the same compound?
Its MIC is 16 µM (≈ 7.46 µg/mL).

And the MIC [7]?
The MIC was 16 µM (≈ 7.46 µg/mL).

And the IC50 [8]?
The IC50 was 16000 nM.

And the MIC [9]?
Its MIC is 32 µM (≈ 14.9 µg/mL).

What about the MIC [10] of the same compound?
Its MIC is 4 µM (≈ 1.86 µg/mL).

What about the IC50 [11] of the same compound?
The IC50 was 4000 nM.

And the MIC [12]?
Its MIC is 8 µM (≈ 3.73 µg/mL).

And the MIC [13]?
Its MIC is 64 µM (≈ 29.8 µg/mL).

What about the MIC [14] of the same compound?
Its MIC is 64 µM (≈ 29.8 µg/mL).

And the MIC [15]?
Its MIC is 64 µM (≈ 29.8 µg/mL).

And the MIC [16]?
Its MIC is 64 µM (≈ 29.8 µg/mL).

And the MIC [17]?
The MIC was 64 µM (≈ 29.8 µg/mL).

What about the MIC [18] of the same compound?
The MIC was 64 µM (≈ 29.8 µg/mL).

What about the MIC [19] of the same compound?
Its MIC is 64 µM (≈ 29.8 µg/mL).

What about the MIC [20] of the same compound?
The MIC was over 256 µM.

And the IC50 [21]?
Its IC50 is over 256000 nM.

And the MIC [22]?
Its MIC is over 256 µM.

What about the MIC [23] of the same compound?
The MIC was over 256 µM.

What about the IC50 [24] of the same compound?
The IC50 was over 256000 nM.

What about the MIC [25] of the same compound?
The MIC was over 256 µM.

What about the MIC [26] of the same compound?
The MIC was over 256 µM.

What about the IC50 [27] of the same compound?
Its IC50 is over 256000 nM.

And the MIC [28]?
The MIC was over 256 µM.

And the “Ratio IC50” value [29]?
The value was 2.

CCCc1c(Cl)c(OC)cc2c1OC(=O)c1c(CCC)c(Cl)c(O)c(Cl)c1O2 was tested. Which MIC [1] did it give?
Its MIC is 0.5 µg/mL (≈ 1.12 µM).

And the MIC [2]?
The MIC was 0.5 µg/mL (≈ 1.12 µM).

What about the MIC [3] of the same compound?
The MIC was 0.5 µg/mL (≈ 1.12 µM).

What about the MIC [4] of the same compound?
The MIC was over 128 µg/mL.

For CCCc1c(Cl)c(OC)c(Cl)c2c1OC(=O)c1c(CCC)c(Cl)c(O)c(Cl)c1O2, which MIC [1] is on record?
Its MIC is 0.25 µg/mL (≈ 0.521 µM).

What about the MIC [2] of the same compound?
Its MIC is 0.5 µg/mL (≈ 1.04 µM).

What about the MIC [3] of the same compound?
The MIC was 0.25 µg/mL (≈ 0.521 µM).

What about the MIC [4] of the same compound?
Its MIC is over 128 µg/mL.

How did the MIC [1] turn out when CCCc1cc(O)cc2c1OC(=O)c1c(CCC)c(Cl)c(O)c(Cl)c1O2 was run?
The MIC was 4 µg/mL (≈ 10.1 µM).

What about the MIC [2] of the same compound?
The MIC was 2 µg/mL (≈ 5.03 µM).

What about the MIC [3] of the same compound?
Its MIC is 2 µg/mL (≈ 5.03 µM).

What about the MIC [4] of the same compound?
Its MIC is over 128 µg/mL.

Which MIC [1] does the source give for CCCc1c(Cl)c(O)cc2c1OC(=O)c1c(CCC)c(Cl)c(O)c(Cl)c1O2 here?
Its MIC is 1 µg/mL (≈ 2.32 µM).

And the MIC [2]?
Its MIC is 1 µg/mL (≈ 2.32 µM).

What about the MIC [3] of the same compound?
The MIC was 0.5 µg/mL (≈ 1.16 µM).

And the MIC [4]?
Its MIC is over 128 µg/mL.

What does the source list for CCCc1c(Cl)c(O)c(Cl)c2c1OC(=O)c1c(CCC)c(Cl)c(O)c(Cl)c1O2?
MIC [1]: 4 µg/mL (≈ 8.58 µM); MIC [2]: 2 µg/mL (≈ 4.29 µM); MIC [3]: 2 µg/mL (≈ 4.29 µM); MIC [4]: > 128 µg/mL

How did the MIC [5] turn out when C[C@H]1COc2c(N3CCN(C)CC3)c(F)cc3c(=O)c(C(=O)O)cn1c23 [LEVOFLOXACIN] was run?
Its MIC is 0.25 µM (≈ 0.0903 µg/mL).

What about the MIC [6] of the same compound?
The MIC was 0.25 µM (≈ 0.0903 µg/mL).

What about the MIC [7] of the same compound?
The MIC was 0.125 µM (≈ 0.0452 µg/mL).

And the IC50 [8]?
Its IC50 is 250 nM.

What about the MIC [9] of the same compound?
The MIC was 64 µM (≈ 23.1 µg/mL).

And the MIC [10]?
The MIC was 0.25 µM (≈ 0.0903 µg/mL).

What about the IC50 [11] of the same compound?
The IC50 was 250 nM.

What about the MIC [12] of the same compound?
Its MIC is 4 µM (≈ 1.45 µg/mL).

What about the MIC [13] of the same compound?
The MIC was 1 µM (≈ 0.361 µg/mL).

And the MIC [14]?
Its MIC is 1 µM (≈ 0.361 µg/mL).

And the MIC [15]?
Its MIC is 1 µM (≈ 0.361 µg/mL).

What about the MIC [16] of the same compound?
Its MIC is over 128 µM.

What about the MIC [17] of the same compound?
The MIC was 64 µM (≈ 23.1 µg/mL).

And the MIC [18]?
Its MIC is 64 µM (≈ 23.1 µg/mL).

And the MIC [19]?
Its MIC is 64 µM (≈ 23.1 µg/mL).

What about the MIC [20] of the same compound?
The MIC was at most 0.03 µM.

What about the IC50 [21] of the same compound?
Its IC50 is 125 nM.

And the MIC [22]?
The MIC was 1 µM (≈ 0.361 µg/mL).

What about the MIC [23] of the same compound?
The MIC was 32 µM (≈ 11.6 µg/mL).

And the IC50 [24]?
The IC50 was 1000 nM.

And the MIC [25]?
The MIC was 0.25 µM (≈ 0.0903 µg/mL).

What about the MIC [26] of the same compound?
The MIC was over 128 µM.

And the IC50 [27]?
The IC50 was 125 nM.

What about the MIC [28] of the same compound?
Its MIC is 16 µM (≈ 5.78 µg/mL).

Which MIC [1] does the source give for CC1(C)S[C@@H]2[C@H](NC(=O)Cc3ccccc3)C(=O)N2[C@H]1C(=O)O [PENICILLIN G] here?
Its MIC is 0.125 µg/mL (≈ 0.374 µM).

And the MIC [2]?
Its MIC is 128 µg/mL (≈ 383 µM).

And the MIC [3]?
Its MIC is 0.125 µg/mL (≈ 0.374 µM).

What about the MIC [4] of the same compound?
The MIC was over 128 µg/mL.
